The record followed here is PMC5218480 (PLoS ONE, 2017).

For the experiment, the system named is MV-4-11 cells. Nature of the experiment: Gene expression microarray analysis (Affymetrix PrimeView) and GSEA. Type of experiment: cell-based, human. The arrangement: RFU PODN (11730768_x_at) / Fold change /veh PODN (11730768_x_at) / RFU LINC00158 (11744669_a_at) / Fold change /veh LINC00158 (11744669_a_at) / RFU DUSP10 (11751237_a_at) / Fold change /veh DUSP10 (11751237_a_at) / RFU ID3 (11757404_x_at) / Fold change /veh ID3 (11757404_x_at) / RFU PLEKHG5 (11737974_s_at) / Fold change /veh PLEKHG5 (11737974_s_at) / RFU LRRC4B (11730491_at) / Fold change /veh LRRC4B (11730491_at) / RFU GIMAP4 (11747438_a_at) / Fold change /veh GIMAP4 (11747438_a_at) / RFU KRT8 (11758183_x_at) / Fold change /veh KRT8 (11758183_x_at) / RFU CNN1 (11734310_a_at) / Fold change /veh CNN1 (11734310_a_at) / RFU VPS37D (11726825_at) / Fold change /veh VPS37D (11726825_at) / RFU C10orf10 (11716522_x_at) / Fold change /veh C10orf10 (11716522_x_at) / RFU KIR2DL2 /// KIR2DL4 /// KIR2DL5A /// KIR2DL5B /// KIR2DS1 /// KIR2DS2 /// KIR2DS3 /// KIR2DS4 /// KIR3DL3 /// KIR3DL3 /// KIR3DS1 (11738374_at) / Fold change /veh KIR2DL2 /// KIR2DL4 /// KIR2DL5A /// KIR2DL5B /// KIR2DS1 /// KIR2DS2 /// KIR2DS3 /// KIR2DS4 /// KIR3DL3 /// KIR3DL3 /// KIR3DS1 (11738374_at) / RFU C1QL1 (11718748_at) / Fold change /veh C1QL1 (11718748_at) / RFU TMPRSS4 (11747572_a_at) / Fold change /veh TMPRSS4 (11747572_a_at) / RFU HAMP (11756126_x_at) / Fold change /veh HAMP (11756126_x_at) / RFU RNFT2 (11725882_a_at) / Fold change /veh RNFT2 (11725882_a_at) / RFU NR4A2 (11747474_a_at) / Fold change /veh NR4A2 (11747474_a_at) / RFU ABCC12 (11746883_a_at) / Fold change /veh ABCC12 (11746883_a_at) / RFU TMEM136 (11760407_x_at) / Fold change /veh TMEM136 (11760407_x_at) / RFU CLDN22 /// WWC2 (11732394_at) / Fold change /veh CLDN22 /// WWC2 (11732394_at) / RFU HLA-DPB1 (11760878_x_at) / Fold change /veh HLA-DPB1 (11760878_x_at) / RFU SPINT1 (11716480_a_at) / Fold change /veh SPINT1 (11716480_a_at) / RFU GAP43 (11754022_s_at) / Fold change /veh GAP43 (11754022_s_at) / RFU A4GNT (11735810_at) / Fold change /veh A4GNT (11735810_at) / RFU PRB3 (11715151_x_at) / Fold change /veh PRB3 (11715151_x_at) / RFU TUBB4B (11761932_at) / Fold change /veh TUBB4B (11761932_at) / RFU CAPN14 (11732068_a_at) / Fold change /veh CAPN14 (11732068_a_at) / RFU TMCC2 (11721928_a_at) / Fold change /veh TMCC2 (11721928_a_at) / RFU IRGQ (11745062_a_at) / Fold change /veh IRGQ (11745062_a_at) / RFU FAM174B (11720279_a_at) / Fold change /veh FAM174B (11720279_a_at) / RFU TMPRSS4 (11748680_a_at) / Fold change /veh TMPRSS4 (11748680_a_at) / RFU FAM212B (11763350_a_at) / Fold change /veh FAM212B (11763350_a_at) / RFU PLEKHG5 (11743358_a_at) / Fold change /veh PLEKHG5 (11743358_a_at) / RFU ZSCAN30 (11745921_a_at) / Fold change /veh ZSCAN30 (11745921_a_at) / RFU CMKLR1 (11741424_a_at) / Fold change /veh CMKLR1 (11741424_a_at) / RFU LOC101060620 /// MAPK8IP1 (11723275_at) / Fold change /veh LOC101060620 /// MAPK8IP1 (11723275_at) / RFU SPTSSB (11747773_x_at) / Fold change /veh SPTSSB (11747773_x_at) / RFU PRSS12 (11739890_at) / Fold change /veh PRSS12 (11739890_at) / RFU BIN1 (11741810_x_at) / Fold change /veh BIN1 (11741810_x_at) / RFU WNT11 (11732464_a_at) / Fold change /veh WNT11 (11732464_a_at) / RFU C10orf10 (11716521_a_at) / Fold change /veh C10orf10 (11716521_a_at) / RFU C5orf56 (11738089_at) / Fold change /veh C5orf56 (11738089_at) / RFU CYB561 (11721691_x_at) / Fold change /veh CYB561 (11721691_x_at) / RFU ANKRD19P (11752326_a_at) / Fold change /veh ANKRD19P (11752326_a_at) / RFU OR2T12 /// OR2T33 /// OR2T8 (11738714_s_at) / Fold change /veh OR2T12 /// OR2T33 /// OR2T8 (11738714_s_at) / RFU VCAN (11748164_a_at) / Fold change /veh VCAN (11748164_a_at) / RFU JSRP1 (11732532_at) / Fold change /veh JSRP1 (11732532_at) / RFU KRTAP10-11 (11738290_x_at) / Fold change /veh KRTAP10-11 (11738290_x_at) / RFU MYO3A (11730013_a_at) / Fold change /veh MYO3A (11730013_a_at) / RFU EBF3 (11725865_a_at) / Fold change /veh EBF3 (11725865_a_at) / RFU CAMK2N1 (11719241_x_at) / Fold change /veh CAMK2N1 (11719241_x_at) / RFU C5orf56 (11738088_a_at) / Fold change /veh C5orf56 (11738088_a_at) / RFU OLFML3 (11715873_a_at) / Fold change /veh OLFML3 (11715873_a_at) / RFU LOC100653217 /// NTM (11731650_a_at) / Fold change /veh LOC100653217 /// NTM (11731650_a_at) / RFU MAPK11 (11762145_a_at) / Fold change /veh MAPK11 (11762145_a_at) / RFU FIZ1 (11724087_x_at) / Fold change /veh FIZ1 (11724087_x_at) / RFU OASL (11726364_x_at) / Fold change /veh OASL (11726364_x_at) / RFU SOX15 (11748057_x_at) / Fold change /veh SOX15 (11748057_x_at) / RFU CD79A (11719716_a_at) / Fold change /veh CD79A (11719716_a_at) / RFU HIST1H1D (11736915_at) / Fold change /veh HIST1H1D (11736915_at) / RFU CASKIN2 (11723855_a_at) / Fold change /veh CASKIN2 (11723855_a_at) / RFU LOC730098 (11760151_x_at) / Fold change /veh LOC730098 (11760151_x_at) / RFU OR4N2 (11742367_at) / Fold change /veh OR4N2 (11742367_at) / RFU PRRT2 (11749266_a_at) / Fold change /veh PRRT2 (11749266_a_at) / RFU SNX32 (11753110_a_at) / Fold change /veh SNX32 (11753110_a_at) / RFU CDHR5 (11726645_a_at) / Fold change /veh CDHR5 (11726645_a_at) / RFU RCAN1 (11760418_a_at) / Fold change /veh RCAN1 (11760418_a_at) / RFU FAM167A (11723789_a_at) / Fold change /veh FAM167A (11723789_a_at) / RFU FAM26E (11764081_at) / Fold change /veh FAM26E (11764081_at) / RFU ISYNA1 (11749810_s_at) / Fold change /veh ISYNA1 (11749810_s_at) / RFU ACY1 (11761880_at) / Fold change /veh ACY1 (11761880_at) / RFU 11764098_at / Fold change /veh 11764098_at / RFU SAMD14 (11745864_x_at) / Fold change /veh SAMD14 (11745864_x_at) / RFU NPB (11741838_a_at) / Fold change /veh NPB (11741838_a_at) / RFU TMPRSS6 (11731388_a_at) / Fold change /veh TMPRSS6 (11731388_a_at) / RFU KRTAP10-2 (11738614_at) / Fold change /veh KRTAP10-2 (11738614_at) / RFU ARHGAP8 /// PRR5-ARHGAP8 (11727945_x_at) / Fold change /veh ARHGAP8 /// PRR5-ARHGAP8 (11727945_x_at) / RFU KRTAP5-7 /// NADSYN1 (11734609_at) / Fold change /veh KRTAP5-7 /// NADSYN1 (11734609_at) / RFU RASL12 (11751679_a_at) / Fold change /veh RASL12 (11751679_a_at) / RFU CDKN2B (11736163_a_at) / Fold change /veh CDKN2B (11736163_a_at) / RFU PRF1 (11729649_at) / Fold change /veh PRF1 (11729649_at) / RFU, ZNF638 /// ZNF638-IT1 / Fold change vs veh, ZNF638 /// ZNF638-IT1 / RFU, PANK3 / Fold change vs veh, PANK3 / RFU, SH3YL1 / Fold change vs veh, SH3YL1 / RFU, ZEB2 / Fold change vs veh, ZEB2 / RFU, NRIP1 / Fold change vs veh, NRIP1 / RFU, PTTG1IP / Fold change vs veh, PTTG1IP / RFU, CAPN2 / Fold change vs veh, CAPN2 / RFU, MED14 / Fold change vs veh, MED14 / RFU, SNORA58 / Fold change vs veh, SNORA58 / RFU, C1orf63 / Fold change vs veh, C1orf63 / RFU, LRRFIP1 / Fold change vs veh, LRRFIP1 / RFU, NDUFAF7 / Fold change vs veh, NDUFAF7 / RFU, SLC12A2 / Fold change vs veh, SLC12A2 / RFU, IBTK / Fold change vs veh, IBTK / RFU, ESF1 / Fold change vs veh, ESF1 / Fold change vs veh, TMEM50B / RFU, TAOK1 / Fold change vs veh, TAOK1 / RFU, ACBD3 / Fold change vs veh, ACBD3 / RFU, TMA16 / Fold change vs veh, TMA16 / RFU, RWDD3 / Fold change vs veh, RWDD3 / RFU, BCAT1 / Fold change vs veh, BCAT1 / RFU, EDEM3 / Fold change vs veh, EDEM3 / RFU, TMEM33 / Fold change vs veh, TMEM33 / RFU, WDR75 / Fold change vs veh, WDR75 / RFU, AHCTF1 / Fold change vs veh, AHCTF1 / RFU, TFRC / Fold change vs veh, TFRC / RFU, ZDHHC17 / Fold change vs veh, ZDHHC17 / RFU, NOM1 / Fold change vs veh, NOM1 / RFU, ARL8B / Fold change vs veh, ARL8B / RFU, ZBTB11 / Fold change vs veh, ZBTB11 / RFU, TAMM41 / Fold change vs veh, TAMM41 / RFU, KIAA1704 /// LOC100996395 / Fold change vs veh, KIAA1704 /// LOC100996395 / RFU, ING1 / Fold change vs veh, ING1 / RFU, TRMT61B / Fold change vs veh, TRMT61B / RFU, FUBP3 / Fold change vs veh, FUBP3 / RFU, TP53 / Fold change vs veh, TP53 / RFU, TNKS2 / Fold change vs veh, TNKS2 / RFU, ZFP14 / Fold change vs veh, ZFP14 / RFU, ACTR2 / Fold change vs veh, ACTR2 / RFU, PPP3R1 / Fold change vs veh, PPP3R1 / RFU, PIK3R1 / Fold change vs veh, PIK3R1 / RFU, HNRNPA1 / Fold change vs veh, HNRNPA1 / RFU, RNF170 / Fold change vs veh, RNF170 / RFU, ZNF28 / Fold change vs veh, ZNF28 / RFU, RNGTT / Fold change vs veh, RNGTT / RFU, OGT / Fold change vs veh, OGT / RFU, BRD1 / Fold change vs veh, BRD1 / RFU, MARS / Fold change vs veh, MARS / RFU, ZNF655 / Fold change vs veh, ZNF655 / RFU, FAHD1 / Fold change vs veh, FAHD1 / RFU, BDP1 / Fold change vs veh, BDP1 / RFU, LRRCC1 / Fold change vs veh, LRRCC1 / RFU, ARID1A / Fold change vs veh, ARID1A / RFU, ZNF146 / Fold change vs veh, ZNF146 / RFU, ZNF330 / Fold change vs veh, ZNF330 / RFU, GPN3 / Fold change vs veh, GPN3 / RFU, C9orf123 / Fold change vs veh, C9orf123 / RFU, N4BP2L2 / Fold change vs veh, N4BP2L2 / RFU, ARFIP1 / Fold change vs veh, ARFIP1 / RFU, FAM179B / Fold change vs veh, FAM179B / RFU, BCL10 / Fold change vs veh, BCL10 / RFU, UHRF1BP1L / Fold change vs veh, UHRF1BP1L / RFU, BET1 / Fold change vs veh, BET1 / RFU, CNOT2 / Fold change vs veh, CNOT2 / RFU, ZNF268 / Fold change vs veh, ZNF268 / Fold change vs veh, ZNF507 / RFU, DGCR2 / Fold change vs veh, DGCR2 / RFU, WDSUB1 / Fold change vs veh, WDSUB1 / Fold change vs veh, HSP90B1 /// MIR3652 / RFU, ADSS / Fold change vs veh, ADSS / RFU, GK / Fold change vs veh, GK / RFU, ZNF148 / Fold change vs veh, ZNF148 / RFU, TAF9 / Fold change vs veh, TAF9 / RFU, SLC1A5 / Fold change vs veh, SLC1A5 / RFU, SLMO2 / Fold change vs veh, SLMO2 / RFU, ABCC4 / Fold change vs veh, ABCC4 / RFU, LOC101060439 /// RAP1B / Fold change vs veh, LOC101060439 /// RAP1B / RFU, RFX7 / Fold change vs veh, RFX7 / RFU, GTPBP10 / Fold change vs veh, GTPBP10 / RFU, CNEP1R1 / Fold change vs veh, CNEP1R1 / RFU, BIVM-ERCC5 /// ERCC5 / Fold change vs veh, BIVM-ERCC5 /// ERCC5 / RFU, ILF3 / Fold change vs veh, ILF3 / RFU 11762660_at / Fold change /veh 11762660_at / RFU VCAN (11757783_s_at) / Fold change /veh VCAN (11757783_s_at) / RFU DDX43 (11728927_at) / Fold change /veh DDX43 (11728927_at) / RFU KRT8 (11758188_x_at) / Fold change /veh KRT8 (11758188_x_at) / RFU NKD1 (11759106_at) / Fold change /veh NKD1 (11759106_at) / RFU SRD5A1 (11742802_a_at) / Fold change /veh SRD5A1 (11742802_a_at) / RFU TPSAB1 /// TPSB2 (11721975_s_at) / Fold change /veh TPSAB1 /// TPSB2 (11721975_s_at) / RFU GSTM3 (11746129_a_at) / Fold change /veh GSTM3 (11746129_a_at) / RFU IL23R (11737362_x_at) / Fold change /veh IL23R (11737362_x_at) / RFU TMEM51 (11727254_a_at) / Fold change /veh TMEM51 (11727254_a_at) / RFU PIWIL2 (11732686_x_at) / Fold change /veh PIWIL2 (11732686_x_at) / RFU ORM1 (11744905_x_at) / Fold change /veh ORM1 (11744905_x_at) / RFU CCDC152 (11743942_at) / Fold change /veh CCDC152 (11743942_at) / RFU ECM1 (11717891_a_at) / Fold change /veh ECM1 (11717891_a_at) / RFU IL23R (11748794_a_at) / Fold change /veh IL23R (11748794_a_at) / RFU TNFAIP8L3 (11732012_x_at) / Fold change /veh TNFAIP8L3 (11732012_x_at) / RFU MBOAT4 (11741988_at) / Fold change /veh MBOAT4 (11741988_at) / RFU 11764193_at / Fold change /veh 11764193_at / RFU TMEM53 (11763286_at) / Fold change /veh TMEM53 (11763286_at) / RFU MAGEB2 (11727129_at) / Fold change /veh MAGEB2 (11727129_at) / RFU TMEM200A (11744735_a_at) / Fold change /veh TMEM200A (11744735_a_at) / RFU CCDC152 (11751479_a_at) / Fold change /veh CCDC152 (11751479_a_at) / RFU FAM211A (11726209_a_at) / Fold change /veh FAM211A (11726209_a_at) / RFU RGS16 (11746705_a_at) / Fold change /veh RGS16 (11746705_a_at) / RFU VCAN (11755009_s_at) / Fold change /veh VCAN (11755009_s_at) / RFU RHOB (11743442_s_at) / Fold change /veh RHOB (11743442_s_at) / RFU RGS16 (11720943_a_at) / Fold change /veh RGS16 (11720943_a_at) / RFU RGS16 (11720944_at) / Fold change /veh RGS16 (11720944_at) / RFU, VPS4B / Fold change vs veh, VPS4B / RFU, CREB1 / Fold change vs veh, CREB1 / RFU, DNAJC13 / Fold change vs veh, DNAJC13 / RFU, GNAQ / Fold change vs veh, GNAQ / RFU, CDK5R1 / Fold change vs veh, CDK5R1 / RFU, ZRANB3 / Fold change vs veh, ZRANB3 / RFU, CUL4A / Fold change vs veh, CUL4A / RFU, CCNY / Fold change vs veh, CCNY / RFU, UFL1 / Fold change vs veh, UFL1 / RFU, COG3 / Fold change vs veh, COG3 / RFU, DIAPH2 / Fold change vs veh, DIAPH2 / RFU, SKA2 / Fold change vs veh, SKA2 / RFU, AFF3 / Fold change vs veh, AFF3 / RFU, LMF1 / Fold change vs veh, LMF1 / RFU, IPO11 / Fold change vs veh, IPO11 / RFU, DFFB / Fold change vs veh, DFFB / RFU, FOXP1 / Fold change vs veh, FOXP1 / RFU, CARD8 / Fold change vs veh, CARD8 / RFU, STRN3 / Fold change vs veh, STRN3 / RFU, ADK / Fold change vs veh, ADK / RFU, RASSF2 / Fold change vs veh, RASSF2 / RFU, WIPF1 / Fold change vs veh, WIPF1 / RFU, LARP1B / Fold change vs veh, LARP1B / RFU, RASA1 / Fold change vs veh, RASA1 / RFU, RB1 / Fold change vs veh, RB1 / RFU, PPFIA1 / Fold change vs veh, PPFIA1 / RFU, MAT2A / Fold change vs veh, MAT2A / RFU, CCT5 / Fold change vs veh, CCT5 / RFU, WDR92 / Fold change vs veh, WDR92 / RFU, CUX1 / Fold change vs veh, CUX1 / RFU, TTC7A / Fold change vs veh, TTC7A / RFU, TMEM135 / Fold change vs veh, TMEM135 / RFU, DEPTOR / Fold change vs veh, DEPTOR / RFU, CPM / Fold change vs veh, CPM / RFU, DNAJB6 / Fold change vs veh, DNAJB6 / RFU, CACNA2D3 / Fold change vs veh, CACNA2D3 / RFU, DTX4 / Fold change vs veh, DTX4 / RFU, TFCP2 / Fold change vs veh, TFCP2 / RFU, GMCL1 /// GMCL1P1 / Fold change vs veh, GMCL1 /// GMCL1P1 / RFU, AEBP2 / Fold change vs veh, AEBP2 / RFU, SNHG1 /// SNORD22 /// SNORD25 /// SNORD26 /// SNORD27 /// SNORD28 /// SNORD29 /// SNORD31 / Fold change vs veh, SNHG1 /// SNORD22 /// SNORD25 /// SNORD26 /// SNORD27 /// SNORD28 /// SNORD29 /// SNORD31 / Fold change (Aza/veh), C12orf56 (ProbeSet 11735607_a_at) / Fold change (ACY-1035/veh), C12orf56 (ProbeSet 11735607_a_at) / Fold change (Aza/veh), FGFR1OP (ProbeSet 11751329_s_at) / Fold change (ACY-1035/veh), FGFR1OP (ProbeSet 11751329_s_at) / Fold change (Aza/veh), VPS36 (ProbeSet 11739960_a_at) / Fold change (ACY-1035/veh), VPS36 (ProbeSet 11739960_a_at) / RFU SYPL1 (11715823_x_at) / Fold change /veh SYPL1 (11715823_x_at) / RFU IGFBP7 (11715501_s_at) / Fold change /veh IGFBP7 (11715501_s_at) / RFU REEP3 (11722064_at) / Fold change /veh REEP3 (11722064_at) / RFU IGLL1 (11728026_x_at) / Fold change /veh IGLL1 (11728026_x_at): dose or concentration left out as unconfirmed. The conditions noted are these: ProbeSet 11750457_a_at; LIST B.

Consider `Nc1ccc(-c2cccs2)cc1NC(=O)c1ccc2c(c1)cc(C1CC1)n2CCN1CCOCC1` [ACY-1035], for which the “RFU, GTPBP10” value was 30.83 RFU.
